Where “and” joins values, the source holds several entries; their conditions need not be identical. Equal values may be shown once.
Test system: 786-0 complex spheroid viability
Assay: Anticancer human tumor 786-0 cell line growth inhibition;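 note: spheroids exposed to agents for seven days before readout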
Conditions: for viability, T/C: stronger effect = lower value
In short: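 Drug combinations with the LSD1 inhibitor iadademstat tested on tumor cells co-cultured as spheroids with endothelial cells and mesenchymal stem cells. Concentrations descended in half-log increments from clinical Cmax or 10 microM.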

[1] = curve of first compound, second compound 0.1 µM
[2] = curve of first compound, second compound 0.316 µM
[3] = curve of first compound, second compound 1 µM
[4] = curve of first compound, second compound 3.16 µM
[5] = curve of first compound, second compound 10 µM
[6] = second compound 0.1 µM, first compound 0.0316 µM
[7] = second compound 0.1 µM, first compound 0.1 µM
[8] = second compound 0.1 µM, first compound 0.316 µM
[9] = second compound 0.1 µM, first compound 1 µM
[10] = second compound 0.316 µM, first compound 0.0316 µM
[11] = second compound 0.316 µM, first compound 0.1 µM
[12] = second compound 0.316 µM, first compound 0.316 µM
[13] = second compound 0.316 µM, first compound 1 µM
[14] = second compound 1 µM, first compound 0.0316 µM
[15] = second compound 1 µM, first compound 0.1 µM
[16] = second compound 1 µM, first compound 0.316 µM
[17] = second compound 1 µM, first compound 1 µM
[18] = second compound 3.16 µM, first compound 0.0316 µM
[19] = second compound 3.16 µM, first compound 0.1 µM
[20] = second compound 3.16 µM, first compound 0.316 µM
[21] = second compound 3.16 µM, first compound 1 µM
[22] = second compound 10 µM, first compound 0.0316 µM
[23] = second compound 10 µM, first compound 0.1 µM
[24] = second compound 10 µM, first compound 0.316 µM
[25] = second compound 10 µM, first compound 1 µM

SMILES: Cn1ncnc1C1c2n[nH]c(=O)c3cc(F)cc(c23)NC1c1ccc(F)cc1 (centres undefined)
- viability, T/C (compound 0.000316 µM): 102% and 101%
- viability, T/C (compound 0.001 µM): 108%
- viability, T/C (compound 0.00316 µM): 98.2% and 97.5%
- viability, T/C (compound 0.01 µM): 98.3% and 97.5%
- viability, T/C (compound 0.0316 µM): 100% and 92.3%
- viability, T/C (compound 0.1 µM): 97.7% and 89.8%
- IC50 (curve of compound): > 0.1 µM

SMILES: Nc1ncn(C2CC(O)C(CO)O2)c(=O)n1 (centres undefined) + NC1CCC(NC2CC2c2ccccc2)CC1
- IC50 [1]: > 1 µM
- IC50 [2]: > 1 µM
- IC50 [3]: > 1 µM
- IC50 [4]: > 1 µM
- IC50 [5]: 0.628 µM
- viability, T/C (second compound 0.1 µM, first compound 0.00316 µM): 115%
- viability, T/C (second compound 0.1 µM, first compound 0.01 µM): 117%
- viability, T/C [6]: 97.1%
- viability, T/C [7]: 82.6%
- viability, T/C [8]: 72.8%
- viability, T/C [9]: 56%
- viability, T/C (second compound 0.316 µM, first compound 0.00316 µM): 127%
- viability, T/C (second compound 0.316 µM, first compound 0.01 µM): 108%
- viability, T/C [10]: 95.3%
- viability, T/C [11]: 92.2%
- viability, T/C [12]: 71.4%
- viability, T/C [13]: 63.1%
- viability, T/C (second compound 1 µM, first compound 0.00316 µM): 118%
- viability, T/C (second compound 1 µM, first compound 0.01 µM): 99%
- viability, T/C [14]: 96.7%
- viability, T/C [15]: 82.5%
- viability, T/C [16]: 70.1%
- viability, T/C [17]: 59%
- viability, T/C (second compound 3.16 µM, first compound 0.00316 µM): 103%
- viability, T/C (second compound 3.16 µM, first compound 0.01 µM): 117%
- viability, T/C [18]: 82.8%
- viability, T/C [19]: 82%
- viability, T/C [20]: 65.2%
- viability, T/C [21]: 52.6%
- viability, T/C (second compound 10 µM, first compound 0.00316 µM): 79.2%
- viability, T/C (second compound 10 µM, first compound 0.01 µM): 80.2%
- viability, T/C [22]: 82.6%
- viability, T/C [23]: 69.6%
- viability, T/C [24]: 58.5%
- viability, T/C [25]: 44.6%

SMILES: CC1COCCN1c1cc(C2(S(C)(=N)=O)CC2)nc(-c2ccnc3[nH]ccc23)n1 (centres undefined)
- viability, T/C (compound 0.0316 µM): 101% and 103%
- viability, T/C (compound 0.1 µM): 99.8% and 99.9%
- viability, T/C (compound 0.316 µM): 91.4% and 99%
- viability, T/C (compound 1 µM): 46.4% and 56.3%
- viability, T/C (compound 3.16 µM): 24.9% and 32.6%
- viability, T/C (compound 10 µM): 12.3% and 18.9%
- IC50 (curve of compound): 0.954 µM and 1.38 µM

SMILES: O=C(c1cc(Cc2n[nH]c(=O)c3ccccc23)ccc1F)N1CCN(C(=O)C2CC2)CC1 + NC1CC1c1ccc(-c2cccc(O)c2)cc1
- IC50 [1]: > 10 µM
- IC50 [2]: > 10 µM
- IC50 [3]: > 10 µM
- IC50 [4]: > 10 µM
- IC50 [5]: > 10 µM
- viability, T/C [6]: 111%
- viability, T/C [7]: 119%
- viability, T/C [8]: 107%
- viability, T/C [9]: 105%
- viability, T/C (second compound 0.1 µM, first compound 3.16 µM): 97.6%
- viability, T/C (second compound 0.1 µM, first compound 10 µM): 80.8%
- viability, T/C [10]: 112%
- viability, T/C [11]: 112%
- viability, T/C [12]: 112%
- viability, T/C [13]: 109%
- viability, T/C (second compound 0.316 µM, first compound 3.16 µM): 98.8%
- viability, T/C (second compound 0.316 µM, first compound 10 µM): 81.1%
- viability, T/C [14]: 111%
- viability, T/C [15]: 110%
- viability, T/C [16]: 113%
- viability, T/C [17]: 108%
- viability, T/C (second compound 1 µM, first compound 3.16 µM): 93.3%
- viability, T/C (second compound 1 µM, first compound 10 µM): 78.6%
- viability, T/C [18]: 103%
- viability, T/C [19]: 105%
- viability, T/C [20]: 103%
- viability, T/C [21]: 97.5%
- viability, T/C (second compound 3.16 µM, first compound 3.16 µM): 85.9%
- viability, T/C (second compound 3.16 µM, first compound 10 µM): 68.4%
- viability, T/C [22]: 97.3%
- viability, T/C [23]: 98.8%
- viability, T/C [24]: 89.3%
- viability, T/C [25]: 90.7%
- viability, T/C (second compound 10 µM, first compound 3.16 µM): 72.8%
- viability, T/C (second compound 10 µM, first compound 10 µM): 52.9%

Reference: PubChem BioAssay AID1918944 (Molecular Pharmacology Branch, DTP, NCI, 2023)
